From US20240124564A1, “ANTI-CLEAVED HISTONE H3 MONOCLONAL ANTIBODY THAT SPECIFICALLY RECOGNIZES NEUTROPHIL EXTRACELLULAR TRAPS” (Max-Planck-Gesellschaft zur Förderung der Wissenschaften …, priority 2021, published 2024)
No end group written: not given here.

Legend:
3D9 binding to NETs = assay: Peptide competition assay; set-up: species or system human; settings: 3D9 preincubated overnight with peptide; PMA 3 h neutrophils
Description: NS: non-stimulated. Images were taken on an upright fluorescent microscope at 20×. Scale bars-50 μm (full field) and 10 μm (inset). • (B) Immunoblots of lysates prepared from neutrophils stimulated with PMA (50 nM) for the times indicated in the figure. […] Samples were serially diluted and immobilized on a high affinity ELISA plate according to DNA content (for NETs, chromatin and DNA) or protein content (for recombinant histone H3) as determined by PicoGreen and bicinchoninic acid assays respectively. Starting concentration was 1 μg/ml DNA or protein. […] Data is presented for dilution 200 ng/ml. REIRR indicates unconjugated branched immunising peptide control formed by SEQ ID NO 11 and SEQ ID NO 26. This peptide was coated at 20 ng/ml. […] (F, G) Neutrophils were seeded in 10 ml petri dishes and stimulated for 3 h with PMA. Before total cell lysis and immunoprecipitation, NETs were digested with benzonase to liberate histones and octamers for antibody binding. […] (F) Coomassie stained gel of proteins immunoprecipitated by 3D9 or isotype control and the corresponding silver stained gel. The predicted cleaved H3 and intact H3 bands are indicated. […]
Neutrophils were seeded on coverslips in a 24 well dish (1×10^5 cells/well) and stimulated with PMA for 3 h and fixed with 2% PFA. […] Peptide competition was assessed visually by fluorescent microscopy.

[1] = test system: Histone H3 cleavage by serine proteases; assay: PMA induced histone H3 cleavage in neutrophils (immunoblot) with serine protease inhibition; type: cell-based, human; settings: preincubation 30 min
Description: (§1) Lysates were resolved by SDS-PAGE and immunoblotted with N- and C-terminal antibodies to H3. GAPDH was used as a loading control. […] At 150 min the cells were fixed and stained for neutrophil elastase (NE), chromatin (using a H2A-H2B-DNA antibody PL2.3) and DNA using DAPI (4′,6-diamidino-2-phenylindole). NS: non-stimulated. Images were taken at 63× and the scale bar is 20 μm.
For all experiments, unless indicated, neutrophils were cultured RPMI (GIBCO 32404014) supplemented with 10 mM HEPES and 0.1% (w/v) HSA, which had been preequilibrated in CO2 conditions for 1 h. Cells were routinely cultured at 37° C., 5% CO2 unless indicated. For all experiments, stimuli were added to cell reactions as 10× working stock solutions freshly diluted in RPMI. For inhibition experiments, a 10× inhibitor stock and appropriate vehicle controls, were added to the cells and preincubated for the times stated in the figure legends.
To analyse proteins, lysates were prepared from stimulated or resting neutrophils. Cells were seeded in culture medium in 1.5 ml microcentrifuge tubes at 1×10^7 cells/ml with 5×10^6 cells per time point. After addition of the inhibitor or agonist, cells were gently mixed and incubated at 37° C. with gentle rotation. […]
For routine protein analysis, samples were analysed by 1D SDS-PAGE and immunoblotted. […] Blotting efficacy was assessed by Ponceau S staining. […]

NET formation = NET formation by immunofluorescent confocal microscopy with serine protease inhibition; type: cell-based, human; settings: preincubation, PMA 50 nM, 150 min
Description: as §1
For immunofluorescent imaging of purified cells, neutrophils/PBMCs were seeded in 24 well dishes containing glass coverslips, with 1×10^5 cells per well and incubated at 37° C. for 1 h allowing to adhere to the coverslip. At this stage, inhibitors and priming factors were included as indicated. Reactions were stopped by the addition of paraformaldehyde (2% [w/v]) for 20 min at RT or 4° C. overnight. After fixation, cells were washed and stained as previously described (Brinkmann et al 2012). Briefly, all steps were performed by floating inverted coverslips on drops of buffer on laboratory parafilm. Cells were permeabilised with PBS, pH 7.5, 0.5% (v/v) Triton X-100 for 3 min. For screening and quantification experiments, this permeabilization step was extended to 10 min. […]

Compound	competition of 3D9 staining of NETs (3D9 binding to NETs)	effect on H3 cleavage upon PMA stimulation [1]	effect on NET formation (NET formation)
branched immunising peptide: branched peptide formed by REIRR (SEQ ID NO 11) and REIRRKC-NH2 (SEQ ID NO 12) (also: branched: C-terminus of chain 1 amide-linked to Lys6 side chain of chain 2, chain 2 conjugated to KLH via Cys thiol, lactam at chain B 6 to a chain's C-terminus; listed as Homo sapiens)	could block 3D9 binding to NETs	–	–
NCCc1ccc(S(=O)(=O)F)cc1 [AEBSF, 4-[2-aminoethyl] benzensulfonylfluoride]	–	inhibited H3 cleavage	inhibited NET formation and nuclear decondensation
